Reference: patent US9957271B2, “Substituted bicyclic aza-heterocycles and analogues as sirtuin modulators” (GlaxoSmithKline, LLC, priority 2012, dated 2018)

Legend:
SIRT1 [1] = biological target: T1, SIRT1 (Homo sapiens, UniProt Q96EB6); test: TAMRA based mass spectrometry assay of SIRT1 activity; assay type: biochemical; settings: TAMRA peptide substrate; for TAMRA EC1.5: concentration giving 150% activation of SIRT1; for Emax: percent maximum fold activation, read-out: TAMRA % Fold Act
T1 sequence (Q96EB6 1-747): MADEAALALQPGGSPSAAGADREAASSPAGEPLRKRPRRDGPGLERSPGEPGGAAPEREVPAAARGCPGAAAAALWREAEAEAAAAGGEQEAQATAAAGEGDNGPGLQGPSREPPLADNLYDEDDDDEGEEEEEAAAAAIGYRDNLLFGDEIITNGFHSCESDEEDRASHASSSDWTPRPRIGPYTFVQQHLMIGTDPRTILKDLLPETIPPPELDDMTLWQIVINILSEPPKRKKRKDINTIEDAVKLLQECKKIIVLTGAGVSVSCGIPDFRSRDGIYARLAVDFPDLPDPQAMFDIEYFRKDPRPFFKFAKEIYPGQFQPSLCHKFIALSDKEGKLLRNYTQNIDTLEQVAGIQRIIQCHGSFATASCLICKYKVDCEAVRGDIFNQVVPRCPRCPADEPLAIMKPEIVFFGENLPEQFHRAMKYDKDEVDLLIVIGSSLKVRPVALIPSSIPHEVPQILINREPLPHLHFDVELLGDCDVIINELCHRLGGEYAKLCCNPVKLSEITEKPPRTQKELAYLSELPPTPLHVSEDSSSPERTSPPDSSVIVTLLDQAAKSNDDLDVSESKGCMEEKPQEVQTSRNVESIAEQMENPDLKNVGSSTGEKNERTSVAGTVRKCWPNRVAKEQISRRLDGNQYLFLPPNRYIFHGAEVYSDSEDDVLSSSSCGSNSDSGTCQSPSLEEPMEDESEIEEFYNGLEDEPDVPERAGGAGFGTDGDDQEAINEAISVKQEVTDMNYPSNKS
Outline: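 Deacetylation of a biotinylated, TAMRA-tagged p53-based peptide (0.5 μM) by 10 nM His-tagged SIRT1 with 120 μM βNAD+, 25 °C for 25 min, pH 8 Tris-acetate buffer, across a compound concentration range. Quenched by formic acid and read by mass spec as product peptide or OAADPR; activity relative to DMSO reactions, nicotinamide defining maximal inhibition.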

SIRT1 [2] = biological target: T1, SIRT1; test: Trp mass spectrometry assay of SIRT1 activity; assay type: biochemical; settings: Trp peptide substrate; for Trp EC1.5: concentration giving 150% activation of SIRT1; for Emax: percent maximum fold activation, read-out: Trp % Fold Act
Outline: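 Activation readout: EC1.5 (concentration raising activity 50% over control) and percent maximum activation, from mass-spec quantitation of OAADPR or deacetylated Trp peptide. Reaction: 0.5 μM acetylated Trp peptide, 120 μM βNAD+, 10 nM bacterially expressed N-His SIRT1, pH 7.5 HEPES buffer with […], 25 min at 25° C.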

Structure (SMILES) | TAMRA EC1.5 (SIRT1 [1]) | Emax (SIRT1 [1]) | Trp EC1.5 (SIRT1 [2]) | Emax (SIRT1 [2])
Cc1nc(C(=O)Nc2cnc3c(C)cc(-c4ccccc4C(F)(F)F)nn23)cs1 [Compound 412] | A (EC1.5<1 μM) | ≥ 350% | A (EC1.5<1 μM) | ≥ 350%
Cc1nc(C(=O)Nc2cnc3c(C)cc(-c4ccccc4C(F)(F)F)nn23)c(C)s1 [Compound 413] | A (EC1.5<1 μM) | ≥ 350% | A (EC1.5<1 μM) | < 350%
Cc1cc(NC(=O)c2cnc3ccc(-c4ccccc4OCC(O)CO)nn23)cc(C)n1 (stereo not drawn) [Compound 415] | A (EC1.5<1 μM) | ≥ 350% | B (EC1.5 1-25 μM) | ≥ 350%
Cc1cc(NC(=O)c2cnc3ccc(-c4cccc(OCC(O)CO)c4)nn23)cc(C)n1 (stereo not drawn) [Compound 418] | B (EC1.5 1-25 μM) | < 350% | C (EC1.5>25 μM) | < 350%
Cc1cc(NC(=O)c2cnc3ccc(-c4ccccc4OC(F)(F)F)nn23)cc(C)n1 [Compound 419] | A (EC1.5<1 μM) | ≥ 350% | A (EC1.5<1 μM) | ≥ 350%
Cc1c(-c2ccccc2C(F)(F)F)nn2c(NC(=O)c3cccc(N4CCCC4)n3)cnc2c1C [Compound 421] | A (EC1.5<1 μM) | ≥ 350% | A (EC1.5<1 μM) | ≥ 350%
Cc1cnc(C(=O)Nc2cnc3c(C)cc(-c4ccccc4C(F)(F)F)nn23)s1 [Compound 424] | A (EC1.5<1 μM) | ≥ 350% | B (EC1.5 1-25 μM) | < 350%
Cc1cc(-c2ccccc2C(F)(F)F)nn2c(NC(=O)c3cccc(N4CCOCC4)n3)cnc12 [Compound 425] | A (EC1.5<1 μM) | ≥ 350% | A (EC1.5<1 μM) | ≥ 350%
Cc1cc(-c2ccccc2C(F)(F)F)nn2c(NC(=O)c3cccc(OCC(O)CO)n3)cnc12 (stereo not drawn) [Compound 427] | A (EC1.5<1 μM) | ≥ 350% | A (EC1.5<1 μM) | ≥ 350%
Cc1nc2c(C)cc(-c3ccccc3C(F)(F)F)nn2c1C(=O)Nc1cccnn1 [Compound 428, 2,8-dimethyl-N-(pyridazin-3-yl)-6-(2-(trifluoromethyl)phenyl)imidazo[1,2-b]pyridazine-3-carboxamide] | A (EC1.5<1 μM) | ≥ 350% | A (EC1.5<1 μM) | ≥ 350%
COc1nccc(NC(=O)c2cnc3ccc(-c4ccccc4OC(F)(F)F)nn23)n1 [Compound 430] | A (EC1.5<1 μM) | ≥ 350% | A (EC1.5<1 μM) | ≥ 350%
Cc1cccc(NC(=O)c2cnc3ccc(-c4ccccc4OC(F)(F)F)nn23)n1 [Compound 431] | A (EC1.5<1 μM) | ≥ 350% | B (EC1.5 1-25 μM) | < 350%
Cc1nc(C(=O)Nc2cnc3cc(C)c(-c4ccccc4C(F)(F)F)nn23)cs1 [Compound 433] | A (EC1.5<1 μM) | ≥ 350% | C (EC1.5>25 μM) | < 350%
Cc1cc(C)nc(C(=O)Nc2cnc3ccc(-c4ccccc4C(F)(F)F)nn23)c1 [Compound 436] | A (EC1.5<1 μM) | ≥ 350% | C (EC1.5>25 μM) | < 350%
COc1cccc(C(=O)Nc2cnc3ccc(-c4ccccc4C(F)(F)F)nn23)n1 [Compound 437] | A (EC1.5<1 μM) | ≥ 350% | A (EC1.5<1 μM) | ≥ 350%
O=C(Nc1cnc2ccc(-c3ccccc3C(F)(F)F)nn12)c1ncccc1F [Compound 439] | A (EC1.5<1 μM) | ≥ 350% | A (EC1.5<1 μM) | < 350%
Cc1cc2ncc(NC(=O)c3cnccn3)n2nc1-c1ccccc1C(F)(F)F [Compound 442] | A (EC1.5<1 μM) | ≥ 350% | C (EC1.5>25 μM) | < 350%
Cc1cc2ncc(NC(=O)c3ccncn3)n2nc1-c1ccccc1C(F)(F)F [Compound 443] | A (EC1.5<1 μM) | ≥ 350% | C (EC1.5>25 μM) | < 350%
Cc1nc(C(=O)Nc2cnc3cc(C)c(-c4ccccc4C(F)(F)F)nn23)c(C)s1 [Compound 445] | A (EC1.5<1 μM) | ≥ 350% | B (EC1.5 1-25 μM) | < 350%
Cc1cc2ncc(NC(=O)c3cccc(N4CCC4)n3)n2nc1-c1ccccc1C(F)(F)F [Compound 448] | A (EC1.5<1 μM) | ≥ 350% | B (EC1.5 1-25 μM) | ≥ 350%
Cc1cc2ncc(NC(=O)c3cccc(OCC(O)CO)n3)n2nc1-c1ccccc1C(F)(F)F (stereo not drawn) [Compound 449] | A (EC1.5<1 μM) | ≥ 350% | A (EC1.5<1 μM) | ≥ 350%
O=C(Nc1cccnc1)c1ncn2ccc(-c3ccccc3C(F)(F)F)nc12 [Compound 451, N-(pyridin-3-yl)-2-(2-(trifluoromethyl)phenyl)imidazo[1,5-a]pyrimidine-8-carboxamide] | B (EC1.5 1-25 μM) | ≥ 350% | B (EC1.5 1-25 μM) | ≥ 350%
O=C(Nc1cccc(N2CCOCC2)n1)c1ncn2ccc(-c3ccccc3C(F)(F)F)nc12 [Compound 454] | A (EC1.5<1 μM) | ≥ 350% | A (EC1.5<1 μM) | ≥ 350%
O=C(Nc1ncn2ccc(-c3ccccc3C(F)(F)F)nc12)c1ccccn1 [Compound 455, N-(2-(2-(trifluoromethyl)phenyl)imidazo[1,5-a]pyrimidin-8-yl)picolinamide] | B (EC1.5 1-25 μM) | < 350% | C (EC1.5>25 μM) | < 350%
Cc1nc(NC(=O)c2c(C)nc3c(C)cc(-c4ccccc4C(F)(F)F)nn23)sc1C [Compound 457] | A (EC1.5<1 μM) | ≥ 350% | A (EC1.5<1 μM) | < 350%
Cc1nc2c(C)cc(-c3ccccc3C(F)(F)F)nn2c1C(=O)Nc1ccncn1 [Compound 460] | A (EC1.5<1 μM) | ≥ 350% | A (EC1.5<1 μM) | ≥ 350%
Cc1nc2ccc(-c3ccccc3C(F)(F)F)nn2c1C(=O)Nc1ccncn1 [Compound 461] | A (EC1.5<1 μM) | ≥ 350% | B (EC1.5 1-25 μM) | ≥ 350%
Cc1nc2ccc(-c3ccccc3C(F)(F)F)nn2c1C(=O)Nc1cnccn1 [Compound 463] | A (EC1.5<1 μM) | ≥ 350% | B (EC1.5 1-25 μM) | ≥ 350%
Cc1nc2ccc(-c3ccccc3OC(F)(F)F)nn2c1C(=O)Nc1ccncc1F [Compound 466] | A (EC1.5<1 μM) | ≥ 350% | A (EC1.5<1 μM) | ≥ 350%
O=C(Nc1cnc2ccc(-c3ccccc3C(F)(F)F)nn12)c1cccc(O)n1 [Compound 467] | B (EC1.5 1-25 μM) | ≥ 350% | B (EC1.5 1-25 μM) | < 350%
